Measured values taken from US6294547A, “Naphthyridine deratives or salts thereof” (Nippon Kayaku Kabushiki Kaisha, priority 1997, dated 2001).
Structures can show the parent of a compound that is named as a salt.

Key:
NK-2 receptors [1] = molecular target: T1, NK-2 receptors (Rattus norvegicus, UniProt P16610); assay: Binding to NK-2 receptors (inhibition of radioactive 125I-neurokinin A binding); format: Fischer strain male rats (duodenum membranes); conditions: rat duodenum membrane; 125I-neurokinin A 1×10^-9 M; 90 min, room temperature; read-out: IC50 of drugs in binding of radioactive neurokinin A
T1 construct: Duodenums isolated from Fischer strain male rats were homogenized; from tissue; host or cells: duodenum membranes of male Fischer rats
T1 sequence (P16610 1-390): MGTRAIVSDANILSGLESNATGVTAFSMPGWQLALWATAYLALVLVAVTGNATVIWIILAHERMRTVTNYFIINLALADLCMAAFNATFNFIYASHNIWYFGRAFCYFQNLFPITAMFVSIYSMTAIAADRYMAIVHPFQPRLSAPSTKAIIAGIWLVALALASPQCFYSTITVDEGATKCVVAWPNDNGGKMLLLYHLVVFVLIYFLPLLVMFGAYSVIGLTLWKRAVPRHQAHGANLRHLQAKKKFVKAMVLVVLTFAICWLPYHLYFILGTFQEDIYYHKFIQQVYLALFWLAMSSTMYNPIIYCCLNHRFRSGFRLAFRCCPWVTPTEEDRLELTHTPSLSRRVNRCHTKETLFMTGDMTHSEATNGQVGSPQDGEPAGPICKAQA
Protocol: Duodenums isolated from Fischer strain male rats were homogenized in 50 mM Tris-hydrochloric acid buffer (pH 7.4) containing saccharose (100 mg/ml) and ethylenediaminetetraacetic acid (1 mM), and the resulting homogenate was centrifuged at 48,000 g and 4° C. for 20 minutes. The pellet thus obtained was washed three times with 10 times as much 50 mM Tris-hydrochloric acid buffer (pH 7.4) containing KCl (300 mM) and ethylenediaminetetraacetic acid (10 mM) as the pellet by volume, and the resulting membrane preparation was suspended in 10 times as much 50 mM Tris-hydrochloric acid buffer (pH 7.4) as the membrane preparation by volume and stored at -80° C. until use. The membrane preparation (20 mg/ml) was incubated together with a radioactive ligand ^125 I-neurokinin A (1×10^-9 M) at room temperature for 90 minutes in the presence of each drug or a solvent therefor in 50 mM Tris-hydrochloricacid buffer (pH 7.4) containing bovine serum albumin (10 mg/ml), bacitracin (40 μg/ml), leupeptin (4 μg/ml), chymostatin (50 μg/ml), antipain (1×10^-4 M) and MnCl2 (1 mM). […] Then, radioactivity in the filter was measured with a gamma counter. The 50% inhibitory concentration (IC50) of the drug was determined by means of a regression line by considering radioactivity in the presence of Nle10 neurokinin A (4-10) (3×10^-6 M) to be due to nonspecific binding, and measuring the rate of inhibition of specific binding by the drug by carrying out a control experiment using the solvent alone.

NK-2 receptors [2] = assay: Inhibitory effect on bronchoconstriction caused by stimulation of NK-2 receptors (Nle10 neurokinin A (4-10)); format: in vivo, Hartley strain male guinea pigs
Protocol: There were used non-treated Hartley strain male guinea pigs and Hartley strain male guinea pigs received to active sensitization by subcutaneous administration of 30 mg/kg of ovalbumin 14 to 21 days before. The guinea pigs were anesthetized with pentobarbital and a tube was inserted into the trachea of each guinea pig. The guinea pigs were subjected to positive pressure respiration by means of an artificial respiratory apparatus at 10 ml/kg and 60 times/minute. The pressure in the edge of the tube in the trachea was measured as an indication of bronchoconstriction. Spontaneous respiration was inhibited by administering succinylcholine. The non-treated guinea pigs were repeatedly and intravenously injected with 2 nmol/kg of Nle10 neurokinin A (4-10), a specific stimulating agent for NK-2 receptors at intervals of 10 minutes. After the bronchoconstriction thus caused became stable, each drug was administered intravenously, orally or in duodenum. Nle10 neurokinin A (4-10) was intravenously injected again 3 minutes after the intravenous administration or 50 minutes after the oral administration or the administration in duodenum. The rate of inhibition by the drug was determined relative to the bronchoconstriction before the drug administration.

Mouse = assay: Toxic effect on mouse, intravenous; format: in vivo; conditions: 65 μmol/kg intravenous
Text: The toxicity of the compounds of the present invention was investigated.

[3] = 0.5 μmol/kg intravenous, 3 min after administration
[4] = 1 μmol/kg intravenous, 3 min after administration
[5] = 8 μmol/kg oral, 50 min after administration

SMILES | IC50 (NK-2 receptors [1]) [µM] | Inhibition (rate), stimulation of NK-2 receptors (NK-2 receptors [2]; [3]) [%] | Inhibition (rate), stimulation of NK-2 receptors (NK-2 receptors [2]; 5 μmol/kg in duodenum, 50 min after administration) [%] | Inhibition (rate), stimulation of NK-2 receptors (NK-2 receptors [2]; [4]) [%] | Toxicity (Mouse) | Inhibition (rate), stimulation of NK-2 receptors (NK-2 receptors [2]; [5]) [%] | Inhibition (rate), stimulation of NK-2 receptors (NK-2 receptors [2]; 0.6 μmol/kg intravenous, 3 min after administration) [%]
COC(=O)Nc1c2c(nc3ccccc13)CCN(CCC(CN(C)C(=O)c1ccccc1)c1ccc(Cl)c(Cl)c1)C2 (single isomer, unassigned) [Example 41, 2-[(-)-4-(N-benzoyl-N-methyl)amino-3-(3,4-dichlorophenyl)butyl]-10-methoxycarbonylamino-1,2,3,4-tetrahydro-benzo[b][1,6]naphthyridine fumarate] | 0.03 | 97.0 | 62.0 | – | – | – | –
CN(CC(CCN1CCc2nc3ccccc3c(CO)c2C1)c1ccc(Cl)c(Cl)c1)C(=O)c1ccccc1 (single isomer, unassigned) [Example 37, 2-[(-)-4-(N-benzoyl-N-methyl)amino-3-(3,4-dichlorophenylbutyl]-10-hydroxymethyl-1,2,3,4-tetrahydro-benzo-[b][1,6]naphthyridine fumarate] | 0.09 | – | – | 97.5 | – | – | –
CN(CC(CCN1CCc2nc3ccccc3c(C(=O)O)c2C1)c1ccc(Cl)c(Cl)c1)C(=O)c1ccccc1 (single isomer, unassigned) [Example 33, 2-[(-)-4-(N-benzoyl-N-methyl)amino-3-(3,4-dichlorophenyl)butyl]-1,2,3,4-tetrahydro-benzo-[b][1,6]naphthyridine-10-carboxylic acid fumarate] | 0.094 | – | – | 57.5 | – | – | –
CC(=O)Nc1c2c(nc3ccccc13)CCN(CCC(CN(C)C(=O)c1ccccc1)c1ccc(Cl)c(Cl)c1)C2 (single isomer, unassigned) [Example 27, 2-[(-)-4-(N-benzoyl-N-methyl)amino-3-(3-4-dichlorophenylbutyl]-10-methylcarbonylamino-1,2,3,4-tetrahydro-benzo[b][1,6]naphthyridine fumarate] | 0.018 | 100.0 | – | – | None | 81.5 | –
CN(CC(CCN1CCc2nc3ccccc3c(C(N)=O)c2C1)c1ccc(Cl)c(Cl)c1)C(=O)c1ccccc1 (single isomer, unassigned) [Example 29, 2-[(-)-4-(N-benzoyl-N-methyl)amino-3-(3,4-dichlorophenyl)butyl]-1,2,3,4-tetrahydro-benzo-[b][1,6]naphthyridine-10-carboxamide fumarate] | 0.059 | – | – | – | – | 43.5 | 100.0
COC(=O)c1c2c(nc3ccccc13)CCN(CCC(CN(C)C(=O)c1ccccc1)c1ccc(Cl)c(Cl)c1)C2 (single isomer, unassigned) [Example 31, 2-[(-)-4-(N-benzoyl-N-methyl1amino-3-(3,4-dichlorophenyl)butyl]-10-methoxycarbonyl-1,2,3,4-tetrahydro-benzo[b][1,6]naphthyridine fumarate] | 0.096 | – | – | 100.0 | – | 53.5 | –
COC(=O)N(C)c1c2c(nc3ccccc13)CCN(CCC(CN(C)C(=O)c1ccccc1)c1ccc(Cl)c(Cl)c1)C2 (single isomer, unassigned) [Example 43, 2-[(-)-4-(N-benzoyl-N-methyl)amino-3-(3,4-dichlorophenyl)butyl]-10-(N-methyl-N-methoxycarbonyl)-amino-1,2,3,4-tetrahydro-benzo[b][1,6]naphthyridine fumarate] | 0.066 | 86.2 | – | – | – | – | –
CN(CC(CCN1CCc2nc3ccccc3c(-c3ccccc3)c2C1)c1ccc(Cl)c(Cl)c1)C(=O)c1ccccc1 (single isomer, unassigned) [Example 39, 2-[(-)-4-(N-benzoyl-N-methyl)amino-3-(3,4-dichlorophenyl)butyl]-10-phenyl-1,2,3,4-tetrahydro-benzo[b][1,6]naphthyridine fumarate] | 0.07 | 70.0 | – | – | – | – | –
